The text below walks through data of US20230183241A1, “CRYSTAL OF A HYPOXANTHINE COMPOUND” (Kissei Pharmaceutical Co., Ltd., priority 2020, published 2023).

The target of one data set is T1, human PHD2184-418 (Homo sapiens, UniProt Q9GZT9).
T1 construct: containing amino acid residues 184 to 418 of the protein represented by CAC42509; histidine tag (N); made in house; host or cells: E. coli BL21 (DE3), pET-30a(+) vector
Nature of the data set: PHD2 inhibitory test (fluorescence polarization, FITC-labeled HIF-1α556-574). Particulars: human PHD2 binding inhibitory activity; 2 μM 2-oxoglutarate, 37° C., 60 minutes. As to the method:
Test Example 1 PHD2 Inhibitory Test
(1) Expression and preparation of human PHD2184-418
Human PHD2184-418 containing amino acid residues 184 to 418 of the protein represented by CAC42509 (GenBank accession ID) was expressed and prepared by the following method.
An expression construct of human PHD2184-418 containing N-terminal histidine tag was introduced into pET-30α (+) vector, and the sequence was confirmed. This vector was introduced into BL21 (DE3) strain and cultured at 37° C. in LB medium containing antibiotics. After culturing, a cell lysis solution was added to the cells, and then the cells were disrupted and suspended by sonication. The disrupted suspension was centrifuged and the supernatant was purified by Ni column to give human PHD2184-418.
Human HIF-1α556-574 (FITC-labeled HIF-1α556-574), containing FITC-Ahx at the N-terminal of HIF-1α556-574 containing amino acid residues 556 to 574 (partial peptide) of human HIF-1α was used as a substrate. Using FITC-labeled HIF-1α556-574, the competitive inhibition between 2-oxoglutarate and the test compound (PHD inhibitor) was evaluated based on the change in fluorescence polarization of FITC-labeled HIF-1α556-574 by the following method.
An enzyme (human PHD2184-418) and the substrate were diluted with an assay buffer (pH 7.4) containing 10 mM HEPES, 150 mM NaCl, 10 μM MnCl2-4H2O, 2 μM 2-oxoglutarate and 0.05% Tween-2θ. […]
For orientation: Fluorescence polarisation rises when a labelled molecule tumbles more slowly, as on binding a larger partner.

In data set [1] the test system is TNBS induced colitis model rat. Nature of the data set: Therapeutic effect in colitis model: suppression of intestinal permeability (FITC). It is filed as in vivo. As to conditions: 3 mg/kg orally once a day for 3 days, serum FITC. As to the method: Test Example 2 Therapeutic Effect in Colitis Model
(1) TNBS Induced Colitis Model Rat
Thus, the suppressive effect on the intestinal permeability based on oral administration of the test compound was evaluated as an indicator of medicinal efficacy.
SD male rats: 8-week-old SLC (Japan SLC) were used. Under pentobarbital anesthesia, 300 μL of TNBS (28 mg/mL) which was prepared by 50% ethanol was administered at a point 8 cm from the anus in the large intestine to cause inflammation. To the solvent-treated group was administrated 300 μL of 50% ethanol. Animals were fasted for 48 hours prior to administration of TNBS. The test compound (3 mg/kg) prepared by 0.05% methylcellulose solution was orally administered once a day from the next day, and it was administered for a total of 3 days. After administering for 3 days, 50 mg/kg FITC was orally administered 4 hours after the administration of the test compound. Blood samples were collected from jugular vein under isoflurane anesthesia after 4 hours. The serum was centrifuged and fluorescence intensity was detected by PHERAstar FSX (BMG Labtech) to measure the concentration of FITC permeating into circulating blood through the mesentery. The suppressive rate on the intestinal permeability of the test compound was calculated based on the value of the test substance-free group as 0 and the value of the TNBS-untreated group as 100.

Data set [2] is described as follows: Rat PK study: concentration of compounds in large intestine tissue and plasma. As to conditions: male, SD, 3 mg/kg oral. It is filed as in vivo. How it is done:
Test Example 3 Concentration of Compounds in Large Intestine Tissue
The test compound (3 mg/kg/5 mL) prepared with 0.05% methylcellulose was orally administered to non-fasted rats (SD, 8-week-old, male, Japan SLC). Blood samples were collected from jugular vein at 0.25, 0.5, 1, 2, 4, 6 and 8 hours after the administration. Laparotomy was performed under isoflurane anesthesia and large intestine was isolated. The collected distal large intestine (about 5 cm) was cut open, and then the large intestine extracted was washed with saline on a dish. After washing, the large intestine was minced with small scissors. About 150 mg thereof was moved to a tube. To the tube was added 100 μL of saline, and the mixture was homogenized using shake master (1000 rpm×30 minutes). Samples were prepared by the addition with quadruple volume of saline as the final volume. The concentrations of the test compound in the large intestine tissue and the plasma were measured through a quantitative analysis using liquid chromatography-mass spectrometry (LC/MS).
As the comparative example, a compound described as example 55 in US2015/0239889 (WO2014/030716) (Compound A) was used.
Symbols in the table have the following meanings. Compound A: comparative example Cmax: maximum plasma concentration of the test compound in the case of oral administration (ng/mL) AUC: area under the plasma test compound concentration-time curve (ng*min/mL) Plasma: plasma test compound concentration after 8 hours (ng/mL) Colon: concentration of the test compound in the large intestine tissue after 8 hours (ng/g) C/P: ratio of the above Colon and Plasma

A short description of another data set: Solid stability test. It is filed as physicochemical. As to conditions: open condition at 40° C., 1 month; for Amount of the mass change of the compound 1: HPLC area normalization; for Crystal form change: powder X-ray diffraction; for Properties: appearance White powder. How it is done:
Test Example 4: Solid Stability Test
Physicochemical stability and chemical stability for crystals of compound 1 (crystal forms I to IV) were examined.
Physicochemical stability: Each crystal was stored under open condition at 40° C. The powder X-ray diffraction of the sample was measured at the initial point and 1 month later, and the change in crystal form was confirmed. The change in properties was also observed at the same time. Chemical stability: Each crystal was stored under open condition at 40° C. The mass of the compound 1 was measured under the following HPLC measurement conditions at the initial point and 1 month later. [HPLC conditions] Detector: Ultraviolet and visible absorptiometer/wavelength: 225 nm
Column: L-column2 ODS, 3 μm, 4.6×150 mm (Chemicals Evaluation and Research Institute)
Column temperature: Constant temperature around 40° C. Flow rate: 1.0 mL/min Mobile phase A: A solution which was prepared with phosphoric acid to pH 2.3 after dissolving potassium dihydrogen phosphate in water to 20 mmol/L Mobile phase B: Acetonitrile Mobile phase ratios 0 to 30 minutes: mobile phase A/mobile phase B=81/19 30 to 50 minutes: mobile phase A/mobile phase B=81/19 to 25/75 50 to 55 minutes: mobile phase A/mobile phase B=25/75 55 to 55.01 minutes: mobile phase A/mobile phase B=25/75 to 81/19 55.01 to 75 minutes: mobile phase A/mobile phase B=81/19 Amount of injection: 5 μL Sample cooler: 4° C. Dissolution solvent: Mixed solution (mobile phase A/acetonitrile=75/25) Sample solution: Sample was dissolved in dissolution solvent and adjusted to about 1.0 mg/mL
Excluding the peaks derived from the blank, the peak areas of the compound 1 and an analogous substance were measured by automatic integration, and the mass of the compound 1 was calculated by area normalization method. Further, the amount of the mass change of the compound 1 after the storage was calculated.

Where two headings read alike, the source gives them in different places. A value given as a limit tells only on which side of the number the result lay.

T1 sequence (Q9GZT9 184-418): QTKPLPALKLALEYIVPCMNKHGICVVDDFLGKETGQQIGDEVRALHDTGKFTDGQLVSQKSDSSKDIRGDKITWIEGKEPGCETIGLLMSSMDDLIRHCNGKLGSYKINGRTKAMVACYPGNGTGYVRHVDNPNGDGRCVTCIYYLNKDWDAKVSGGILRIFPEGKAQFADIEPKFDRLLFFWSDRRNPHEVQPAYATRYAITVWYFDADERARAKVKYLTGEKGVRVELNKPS

For orientation: IC50 means the concentration that gives 50% inhibition. `COc1ccc(Cn2cnc3nc(-n4cc(C(=O)O)cn4)[nH]c(=O)c32)cc1` [Compound 1, 1-(7-(4-Methoxybenzyl)-6-oxo-6,7-dihydro-1H-purin-2-yl)-1H-pyrazole-4-carboxylic acid] showed an IC50 at human PHD2184-418 of 440 nM. Besides, the “Inhibition (suppressive rate on the intestinal permeability, mean)” value in data set [1] was 83%. Besides, the concentration at 8 h in data set [2] (large intestine tissue (distal), read-out: Colon: concentration in the large intestine tissue after 8 hours) is 209 ng/g; in data set [2] (plasma, read-out: Plasma: plasma test compound concentration after 8 hours) it was less than 1 ng/mL. In addition, the Kp at 8 h in data set [2] (large intestine tissue / plasma, read-out: C/P: ratio of Colon and Plasma) was more than 209.
As for `COc1ccc(Cn2cnc3nc(-n4cc(C(=O)O)cn4)[nH]c(=O)c32)cc1` [Crystal form I of the compound 1, 1-(7-(4-Methoxybenzyl)-6-oxo-6,7-dihydro-1H-purin-2-yl)-1H-pyrazole-4-carboxylic acid], in the data set “Solid stability test”, the “Amount of the mass change of the compound 1” value is listed as −0.05%, the Crystal form change result was “No change” and the Properties entry is given as “no change”.
Taken in the same sequence, the figures for `COc1ccc(Cn2cnc3nc(-n4cc(C(=O)O)cn4)[nH]c(=O)c32)cc1` [Crystal form II of the compound 1, 1-(7-(4-Methoxybenzyl)-6-oxo-6,7-dihydro-1H-purin-2-yl)-1H-pyrazole-4-carboxylic acid] were 0.03%, “No change” and “no change”.
The like results for `COc1ccc(Cn2cnc3nc(-n4cc(C(=O)O)cn4)[nH]c(=O)c32)cc1` [Crystal form III of the compound 1, 1-(7-(4-Methoxybenzyl)-6-oxo-6,7-dihydro-1H-purin-2-yl)-1H-pyrazole-4-carboxylic acid] were, in that order, 0.00%, “No change” and “no change”.
Taken in the same sequence, the figures for `COc1ccc(Cn2cnc3nc(-n4cc(C(=O)O)cn4)[nH]c(=O)c32)cc1` [Crystal form IV of the compound 1, 1-(7-(4-Methoxybenzyl)-6-oxo-6,7-dihydro-1H-purin-2-yl)-1H-pyrazole-4-carboxylic acid] were 0.00%, “No change” and “no change”.
